For test [1], the system named is BT474 (human breast carcinoma). The experiment in a line: In vitro tumor cell proliferation assay (Cell Titer-Glo luminescent cell viability), BT474. The class given is cell-based. The settings on record: BT-474, 72 h, BT474 cells, 72 hours of drug exposure, ATP luminescence readout, read-out: IC50, anti-proliferative activity (inhibition of cell proliferation). The source says:
(§1) In vitro Tumor Cell Proliferation Assay
(§2) The tumor cell proliferation assay used to test the compounds of the present invention involves a readout called Cell Titer-Glow® Luminescent Cell Viability Assay developed by Promega® (Cunningham, B A “A Growing Issue: Cell Proliferation Assays, Modern kits ease quantification of cell growth” The Scientist 2001, 15(13), 26, and Crouch, S P et al., “The use of ATP bioluminescence as a measure of cell proliferation and cytotoxicity” Journal of Immunological Methods 1993, 160, 81-88), that measures inhibition of cell proliferation. Generation of a luminescent signal corresponds to the amount of ATP present, which is directly proportional to the number of metabolically active (proliferating) cells.
(§3) A431cells (human epidermoid carcinoma, ATCC […]) and BT474 (human breast carcinoma, ATCC […]) were plated at a density of 2.5×10^3 cells/well in 96 well black-clear bottom tissue culture plates in RPMI media with 10% Fetal Bovine Serum and incubated at 37° C. Twenty-four hours later, test compounds are added at a final concentration range from as high […] to as low 64 pM depend on the activities of the tested compounds in serial dilutions at a final DMSO concentration of 0.1%. Cells were incubated for 72 hours at 37° C. in complete growth media after addition of the test compound. After 72 hours of drug exposure, the plates were equilibrated to room temperature for approximately 30 min. Then, using a Promega Cell Titer Glo Luminescent® assay kit, lysis buffer containing 100 microliters of the enzyme luciferase and its substrate, luciferin mixture, was added to each well. The plates were mixed for 2 min on orbital shaker to ensure cell lysis and incubated for 10 min at room temperature to stabilize luminescence signal. The samples were read on VICTOR 2 using Luminescence protocol, and analyzed with Analyze5 software to generate IC50 values.
(ATP-based viability assays read luminescence as a measure of living cells.)

Test [2] relates to A431 cells (human epidermoid carcinoma). The experiment in a line: In vitro tumor cell proliferation assay (Cell Titer-Glo luminescent cell viability), A431. The class given is cell-based. As to conditions: A-431, 72 h, 72 hours of drug exposure, ATP luminescence readout, read-out: IC50, anti-proliferative activity (inhibition of cell proliferation).
Description: as §1, §2, §3

This passage reports IC50 results from US8207172B2 (Bayer Intellectual Property GmbH, priority 2004, dated 2012).

With `CN(C)C1CCN(C(=O)Cn2ncc3c2CCc2c-3sc3ncnc(Nc4ccc(OCc5cccc(F)c5)c(Cl)c4)c23)C1` (stereo in doubt) [Example 208, N-{3-chloro-4-[(3-fluorobenzyl)oxy]phenyl}-3-{2-[(3S)-3-(dimethylamino)pyrrolidin 1-yl]-2-oxoethyl}-4,5-dihydro-3H-pyrimido[5′,4′:4,5]thieno[2,3-e]indazol-6-amine], the results for the IC50 in test [1] and in test [2] were ≤ 1 µM and ≤ 5 µM, respectively. Take `CN(C)C1CCN(C(=O)Cn2ncc3c2CCc2c-3sc3ncnc(Nc4ccc(OCc5cccc(F)c5)c(Cl)c4)c23)C1` (stereo in doubt) [Example 211, N-{3-chloro-4-[(3-fluorobenzyl)oxy]phenyl}-3-{2-[(3R)-3-(dimethylamino)pyrrolidin-1-yl]-2-oxoethyl}-4,5-dihydro-3H-pyrimido[5′,4′:4,5]thieno[2,3-e]indazol-6-amine]: the results for the IC50 in test [1] and in test [2] were ≤ 1 µM and ≤ 5 µM, respectively. The like results for `OCCn1cc2c(n1)CCc1c-2sc2ncnc(Nc3ccc(F)c(Cl)c3)c12` [Example 1, 2-{6-[(3-chloro-4-fluorophenyl)amino]-4,5-dihydro-2H-pyrimido[5′,4′:4,5]thieno[2,3-e]indazol-2-yl}ethanol] were, in that order, ≤ 1 µM and ≤ 5 µM.

As for `CN(C)[C@H]1CCN(CCn2cc3c(n2)CCc2c-3sc3ncnc(Nc4ccc(F)c(Cl)c4)c23)C1` [Example 2, N-(3-chloro-4-fluorophenyl)-2-{2-[(3S)-3-(dimethylamino)pyrrolidin 1-yl]ethyl}-4,5-dihydro-2H-pyrimido[5′,4′:4,5]thieno[2,3-e]indazol-6-amine], the figures for the IC50 in test [1] and in test [2] were ≤ 1 µM and ≤ 5 µM, respectively. On to `CN(C)[C@@H]1CCN(CCn2cc3c(n2)CCc2c-3sc3ncnc(Nc4ccc(F)c(Cl)c4)c23)C1` [Example 3, N-(3-chloro-4-fluorophenyl)-2-{2-[(3R)-3-(dimethylamino)pyrrolidin-1-yl]ethyl}-4,5-dihydro-2H-pyrimido[5′,4′:4,5]thieno[2,3-e]indazol-6-amine], for which the IC50 in test [1] and in test [2] was ≤ 5 µM in each case. On to `COCCNCCn1cc2c(n1)CCc1c-2sc2ncnc(Nc3ccc(F)c(Cl)c3)c12` [Example 4, N-(3-chloro-4-fluorophenyl)-2-{2-[(2-methoxyethyl)amino]ethyl}-4,5-dihydro-2H-pyrimido[5′,4′:4,5]thieno[2,3-e]indazol-6-amine], for which the IC50 in test [1] and in test [2] was ≤ 5 µM throughout. For the molecule `Fc1ccc(Nc2ncnc3sc4c(c23)CCc2nn(CCN3CCOCC3)cc2-4)cc1Cl` [Example 5, N-(3-chloro-4-fluorophenyl)-2-(2-morpholin-4-ylethyl)-4,5-dihydro-2H-pyrimido[5′,4′:4,5]thieno[2,3-e]indazol-6-amine], the IC50 in test [1] and in test [2] was ≤ 5 µM each time. Consider `Fc1ccc(Nc2ncnc3sc4c(c23)CCc2nn(CCNCCN3CCOCC3)cc2-4)cc1Cl` [Example 7, N-(3-chloro-4-fluorophenyl)-2-{2-[(2-morpholin-4-ylethyl)amino]ethyl]-4,5-dihydro-2H-pyrimido[5′,4′:4,5]thieno[2,3-e]indazol-6-amine], for which the IC50 in test [1] was ≤ 1 µM; in test [2] it was ≤ 5 µM. For `CN1CCN(CCn2cc3c(n2)CCc2c-3sc3ncnc(Nc4ccc(F)c(Cl)c4)c23)CC1` [Example 8, N-(3-chloro-4-fluorophenyl)-2-[2-(4-methylpiperazin-1-yl)ethyl]-4,5-dihydro-2H-pyrimido[5′,4′:4,5]thieno[2,3-e]indazol-6-amine], the IC50 is ≤ 1 µM in test [1] and ≤ 5 µM in test [2]. With `Fc1ccc(Nc2ncnc3sc4c(c23)CCc2nn(CCN3CCCC3)cc2-4)cc1Cl` [Example 9, N-(3-chloro-4-fluorophenyl)-2-(2-pyrrolidin-1-ylethyl)-4,5-dihydro-2H-pyrimido[5′,4′:4,5]thieno[2,3-e]indazol-6-amine], the IC50 in test [1] and in test [2] was ≤ 5 µM throughout. Take `COCCN(C)CCn1cc2c(n1)CCc1c-2sc2ncnc(Nc3ccc(F)c(Cl)c3)c12` [Example 10, N-(3-chloro-4-fluorophenyl)-2-{2-[(2-methoxyethyl)(methyl)amino]ethyl}-4,5-dihydro-2H-pyrimido[5′,4′:4,5]thieno[2,3-e]indazol-6-amine]: the IC50 in test [1] and in test [2] was ≤ 5 µM each time. Regarding `Fc1ccc(Nc2ncnc3sc4c(c23)CCc2nn(CCN3CCCCC3)cc2-4)cc1Cl` [Example 11, N-(3-chloro-4-fluorophenyl)-2-(2-piperidin-1-ylethyl)-4,5-dihydro-2H-pyrimido[5′,4′:4,5]thieno[2,3-e]indazol-6-amine], the IC50 in test [1] and in test [2] was ≤ 5 µM throughout. For `Fc1ccc(Nc2ncnc3sc4c(c23)CCc2nn(CCn3ccnc3)cc2-4)cc1Cl` [Example 12, N-(3-chloro-4-fluorophenyl)-2-[2-(1H-imidazol-1-yl)ethyl]-4,5-dihydro-2H-pyrimido[5′,4′:4,5]thieno[2,3-e]indazol-6-amine], the IC50 in test [1] and in test [2] was ≤ 5 µM throughout. Turning to `CS(=O)(=O)CCNCCn1cc2c(n1)CCc1c-2sc2ncnc(Nc3ccc(F)c(Cl)c3)c12` [Example 13, N-(3-chloro-4-fluorophenyl)-2-(2-{[2-(methylsulfonyl)ethyl]amino}ethyl)-4,5-dihydro-2H-pyrimido[5′,4′:4,5]thieno[2,3-e]indazol-6-amine], the IC50 in test [1] and in test [2] was ≤ 5 µM in each case. For `Fc1ccc(Nc2ncnc3sc4c(c23)CCc2nn(CCN3CCN(Cc5ccncc5)CC3)cc2-4)cc1Cl` [Example 14, N-(3-chloro-4-fluorophenyl)-2-{2-[4-(pyridin-4-ylmethyl)piperazin-1-yl]ethyl}-4,5-dihydro-2H-pyrimido[5′,4′:4,5]thieno[2,3-e]indazol-6-amine], the IC50 in test [1] and in test [2] was ≤ 5 µM in each case.

`CN(C)C1CCN(CCn2cc3c(n2)CCc2c-3sc3ncnc(Nc4ccc(F)c(Cl)c4)c23)C1` (stereo not drawn) [Example 15, N-(3-chloro-4-fluorophenyl)-2-{2-[3-(dimethylamino)pyrrolidin-1-yl]ethyl}-4,5-dihydro-2H-pyrimido[5′,4′:4,5]thieno[2,3-e]indazol-6-amine]: the IC50 in test [1] is ≤ 1 µM; in test [2], ≤ 5 µM. The like results for `CN(C)CCNCCn1cc2c(n1)CCc1c-2sc2ncnc(Nc3ccc(F)c(Cl)c3)c12` [Example 16, N′-(2-{6-[(3-chloro-4-fluorophenyl)amino]-4,5-dihydro-2H-pyrimido[5′,4′:4,5]thieno[2,3-e]indazol-2-yl}ethyl)-N,N-dimethylethane-1,2-diamine] were, in that order, ≤ 5 µM and ≤ 5 µM. Taken in the same sequence, the figures for `CN(C)CCCCNCCn1cc2c(n1)CCc1c-2sc2ncnc(Nc3ccc(F)c(Cl)c3)c12` [Example 17, N′-(2-{6-[(3-chloro-4-fluorophenyl)amino]-4,5-dihydro-2H-pyrimido[5′,4′:4,5]thieno[2,3-e]indazol-2-yl}ethyl)-N,N-dimethylbutane-1,4-diamine] were ≤ 5 µM and ≤ 5 µM. The like results for `Fc1ccc(Nc2ncnc3sc4c(c23)CCc2nn(CCNCCN3CCCC3)cc2-4)cc1Cl` [Example 18, N-(3-chloro-4-fluorophenyl)-2-{2-[(2-pyrrolidin-1-ylethyl)amino]ethyl}-4,5-dihydro-2H-pyrimido[5′,4′:4,5]thieno[2,3-e]indazol-6-amine] were, in that order, ≤ 50 µM and ≤ 50 µM. Take `Fc1cccc(COc2ccc(Nc3ncnc4sc5c(c34)CCc3nn(CCC4CCNCC4)cc3-5)cc2Cl)c1` [Example 247, N-{3-chloro-4-[(3-fluorobenzyl)oxy]phenyl}-2-(2-piperidin-4-ylethyl)-4,5-dihydro-2H-pyrimido[5′,4′:4,5]thieno[2,3-e]indazol-6-amine]: the IC50 in test [1] was ≤ 1 µM. Consider `CS(=O)(=O)OCCn1cc2c(n1)CCc1c-2sc2ncnc(Nc3ccc4c(cnn4Cc4ccccc4)c3)c12` [Example 303, 2-{6-[(1-benzyl-1H-indazol-5-yl)amino]-4,5-dihydro-2H-pyrimido[5′,4′:4,5]thieno[2,3-e]indazol-2-yl}ethyl methanesulfonate], for which, in test [1], the IC50 was ≤ 1 µM. As for `c1ccc(Cn2ncc3cc(Nc4ncnc5sc6c(c45)CCc4nn(CCN5CCNCC5)cc4-6)ccc32)cc1` [Example 306, N-(1-benzyl-1H-indazol-5-yl)-2-(2-piperazin-1-ylethyl)-4,5-dihydro-2H-pyrimido[5′,4′:4,5]thieno[2,3-e]indazol-6-amine], in test [1], the IC50 is ≤ 1 µM. Turning to `CN1CCN(CCn2cc3c(n2)CCc2c-3sc3ncnc(Nc4ccc5c(ccn5Cc5ccccc5)c4)c23)CC1` [Example 337, N-(1-benzyl-1H-indol-5-yl)-2-[2-(4-methylpiperazin-1-yl)ethyl]-4,5-dihydro-2H-pyrimido[5′,4′:4,5]thieno[2,3-e]indazol-6-amine], the IC50 in test [1] was ≤ 1 µM.
